Data reported in ChEMBL document CHEMBL1201862, “PubChem BioAssay data set” (2004).
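Results reflect a 48-hour exposure of cells in 96-well plates to compound at five concentrations. At the GI50, growth is halved.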 Activity calls are given as the source filed them. No stated cut-off is given here; in the data, active = GI50 up to about 1.1 µM and inactive = higher.

Tests used:
Experiment in all cases: NCI anticancer screen, dose series, 48 h
SNB-75 = tested on: SNB-75
HOP-92 = tested on: HOP-92
MOLT-4 = tested on: MOLT-4
NCI-H522 = tested on: NCI-H522
A549 = tested on: A549
U-251 = tested on: U-251
UACC-62 = tested on: UACC-62
A498 = tested on: A498
LXFL 529 = tested on: LXFL 529
OVCAR-8 = tested on: OVCAR-8
SF-268 = tested on: SF-268
NCI-H460 = tested on: NCI-H460
LOX IMVI = tested on: LOX IMVI
KM-20L2 = tested on: KM-20L2
SK-MEL-2 = tested on: SK-MEL-2

Row | SMILES | GI50 (SNB-75) | GI50 (HOP-92) | GI50 (MOLT-4) | GI50 (NCI-H522) | GI50 (A549) | GI50 (U-251) | GI50 (UACC-62) | GI50 (A498) | GI50 (LXFL 529) | GI50 (OVCAR-8) | GI50 (SF-268) | GI50 (NCI-H460) | GI50 (LOX IMVI) | GI50 (KM-20L2) | GI50 (SK-MEL-2)
1 | COc1cc2c(c(OC)c1OC)-c1ccc(OC)c(=O)cc1[C@@H](N(C)C=O)CC2 | < 0.01 µM (active) | 0.0137 µM (active) | 0.0212 µM (active) | 0.015 µM (active) | 0.0246 µM (active) | < 0.0163 µM (active) | 0.0177 µM (active) | 0.0209 µM (active) | < 0.0184 µM (active) | 0.0218 µM (active) | 0.0219 µM (active) | < 0.0179 µM (active) | 0.0249 µM (active) | 0.0133 µM (active) | 0.0135 µM (active)
2 | C=C1CCc2occ(C)c2C2C1C1=C(CC(C)C1=O)C1OC12C (centres undefined) | 34.7 µM (inactive) | > 100 µM (inactive) | > 100 µM (inactive) | 44.8 µM (inactive) | > 100 µM (inactive) | > 100 µM (inactive) | 52 µM (inactive) | > 100 µM (inactive) | > 100 µM (inactive) | > 100 µM (inactive) | > 100 µM (inactive) | > 100 µM (inactive) | > 100 µM (inactive) | > 100 µM (inactive) | > 100 µM (inactive)
3 | CCOC(=O)C1(Br)C(c2ccccc2)NC(=O)NC1(C)Br (centres undefined) | > 100 µM (inactive) | > 100 µM (inactive) | 73.3 µM (inactive) | 30.3 µM (inactive) | > 100 µM (inactive) | 16.4 µM (inactive) | 52.8 µM (inactive) | > 100 µM (inactive) | 92.5 µM (inactive) | 89.3 µM (inactive) | > 100 µM (inactive) | > 100 µM (inactive) | 38.3 µM (inactive) | > 100 µM (inactive) | > 100 µM (inactive)
4 | Cc1ccc([N+](=O)[O-])cc1NC(=O)C(=O)Cc1cc(=O)oc2cc(O)ccc12 | > 100 µM (inactive) | > 100 µM (inactive) | > 100 µM (inactive) | > 100 µM (inactive) | > 100 µM (inactive) | > 100 µM (inactive) | > 100 µM (inactive) | > 100 µM (inactive) | 56.5 µM (inactive) | > 100 µM (inactive) | 32 µM (inactive) | 83.9 µM (inactive) | 26.6 µM (inactive) | 63.7 µM (inactive) | > 100 µM (inactive)
5 | COc1cc2c(c(OC)c1OC)-c1ccc(SC)c(=O)cc1[C@@H](NC(=O)c1ccc(C#N)cc1)CC2 | 0.146 µM (active) | < 0.01 µM (active) | < 0.01 µM (active) | < 0.01 µM (active) | < 0.01 µM (active) | < 0.01 µM (active) | < 0.01 µM (active) | < 0.01 µM (active) | < 0.01 µM (active) | < 0.01 µM (active) | < 0.01 µM (active) | < 0.01 µM (active) | < 0.01 µM (active) | < 0.01 µM (active) | < 0.01 µM (active)
6 | CC(=O)OCCOCNC(=S)N/N=C/c1cc([N+](=O)[O-])ccc1O | > 100 µM (inactive) | > 100 µM (inactive) | – | 30.5 µM (inactive) | > 100 µM (inactive) | > 100 µM (inactive) | 69.8 µM (inactive) | > 100 µM (inactive) | 93.8 µM (inactive) | 90.2 µM (inactive) | 77.4 µM (inactive) | > 100 µM (inactive) | > 100 µM (inactive) | 61.1 µM (inactive) | > 100 µM (inactive)
7 | CCC12C=CCN3CC[C@]4(C(=C(C(=O)OC)[C@@H]1Nc1ncnc5c1ncn5C1OC(COC(C)=O)C(OC(C)=O)C1OC(C)=O)Nc1ccccc14)C32 (some centres undefined) | 2.43 µM (inactive) | 2.39 µM (inactive) | 3.3 µM (inactive) | 1.7 µM (inactive) | 3.53 µM (inactive) | 2.19 µM (inactive) | 3.11 µM (inactive) | 2.04 µM (inactive) | 2.4 µM (inactive) | 2.18 µM (inactive) | 2.05 µM (inactive) | 2.51 µM (inactive) | 1.75 µM (inactive) | 2.71 µM (inactive) | 3.44 µM (inactive)
8 | Ic1cc2c(cc1C1SCCCS1)OCO2 | > 100 µM (inactive) | > 100 µM (inactive) | > 100 µM (inactive) | > 100 µM (inactive) | > 100 µM (inactive) | > 100 µM (inactive) | > 100 µM (inactive) | > 100 µM (inactive) | > 100 µM (inactive) | > 100 µM (inactive) | > 100 µM (inactive) | > 100 µM (inactive) | > 100 µM (inactive) | > 100 µM (inactive) | > 100 µM (inactive)
9 | COC(=O)/C([Se]c1c(C)cc(C)cc1C)=C(/[Se]c1c(C)cc(C)cc1C)C(=O)OC | > 100 µM (inactive) | 68.4 µM (inactive) | 47.3 µM (inactive) | > 100 µM (inactive) | > 100 µM (inactive) | > 100 µM (inactive) | > 100 µM (inactive) | > 100 µM (inactive) | > 100 µM (inactive) | > 100 µM (inactive) | > 100 µM (inactive) | 78.7 µM (inactive) | > 100 µM (inactive) | > 100 µM (inactive) | > 100 µM (inactive)
